Columns and labels:
[1] = target: D(2) dopamine receptor (Homo sapiens) (UniProt P14416); experiment: Agonist activity at human recombinant dopamine D2 long receptor expressed in CHOK1 cells coexpressing mitochondrial apoaequorin at 100 uM by luminometric analysis relative to quinpirol; assay type: cell-based; conditions: CHO-K1
[2] = target: D(1A) dopamine receptor (Homo sapiens) (UniProt P21728); experiment: Antagonist activity at human recombinant dopamine D1 receptor expressed in CHOK1 cells assessed as inhibition of agonist-induced cAMP accumulation at 100 uM preincubated for 10 mins prior to agonist addition measured after 30 mins by HTRF assay relative to SCH23390; assay type: functional, cell-based; conditions: CHO-K1
[3] = target: D(1A) dopamine receptor (Homo sapiens) (UniProt P21728); experiment: Agonist activity at human recombinant dopamine D1 receptor expressed in CHOK1 cells assessed as stimulation of cAMP accumulation at 100 uM after 30 mins by HTRF assay relative to SKF81297; assay type: functional, cell-based; conditions: CHO-K1
[4] = target: D(2) dopamine receptor (Homo sapiens) (UniProt P14416); experiment: Antagonist activity at human recombinant dopamine D2 long receptor expressed in CHOK1 cells coexpressing mitochondrial apoaequorin assessed as inhibition of agonist-induced effect at 50 uM after 15 mins by luminometric analysis relative to haloperidol; assay type: cell-based; conditions: CHO-K1
[5] = target: T1, Prostaglandin G/H synthase 1 (Homo sapiens, UniProt P23219); experiment: Inhibition of COX-1 (unknown origin) using arachidonic acid as substrate assessed as formation of prostanoid products at 500 uM preincubated for 10 mins prior to substrate addition measured after 2 mins by Ellman's method relative to control
[6] = target: T2, Angiotensin-converting enzyme (Homo sapiens, UniProt P12821); experiment: Inhibition of ACE (unknown origin) assessed as 3-Hydroxybutyril-glycil-glycil-glycine conversion to 3-hydroxybutyric acid after 60 mins by WST assay
[7] = target: T2, Angiotensin-converting enzyme; experiment: Inhibition of ACE (unknown origin) assessed as 3-Hydroxybutyril-glycil-glycil-glycine conversion to 3-hydroxybutyric acid at 500 uM after 60 mins by WST assay relative to control
[8] = target: T3, Prostaglandin G/H synthase 2 (Homo sapiens, UniProt P35354); experiment: Inhibition of COX-2 (unknown origin) using arachidonic acid as substrate assessed as formation of prostanoid products preincubated for 10 mins prior to substrate addition measured after 2 mins by Ellman's method
T3 sequence (P35354 whole entry): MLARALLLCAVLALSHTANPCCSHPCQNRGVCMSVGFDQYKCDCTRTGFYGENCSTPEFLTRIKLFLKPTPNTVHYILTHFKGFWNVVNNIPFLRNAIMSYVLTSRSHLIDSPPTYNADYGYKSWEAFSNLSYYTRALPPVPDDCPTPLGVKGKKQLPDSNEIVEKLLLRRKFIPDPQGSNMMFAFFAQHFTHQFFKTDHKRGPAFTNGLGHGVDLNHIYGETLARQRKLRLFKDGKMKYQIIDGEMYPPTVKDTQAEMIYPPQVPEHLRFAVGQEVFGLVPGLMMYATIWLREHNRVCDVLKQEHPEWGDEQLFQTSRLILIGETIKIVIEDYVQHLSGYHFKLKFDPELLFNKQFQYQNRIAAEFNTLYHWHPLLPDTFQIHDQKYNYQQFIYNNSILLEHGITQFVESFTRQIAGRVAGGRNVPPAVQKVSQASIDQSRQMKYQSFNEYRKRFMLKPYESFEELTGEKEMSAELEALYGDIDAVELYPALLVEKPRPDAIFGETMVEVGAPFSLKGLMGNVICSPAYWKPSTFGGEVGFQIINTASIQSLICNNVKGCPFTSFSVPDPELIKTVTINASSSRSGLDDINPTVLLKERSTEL

[9] = target: T1, Prostaglandin G/H synthase 1; experiment: Inhibition of COX-1 (unknown origin) using arachidonic acid as substrate assessed as formation of prostanoid products preincubated for 10 mins prior to substrate addition measured after 2 mins by Ellman's method
[10] = target: D(1A) dopamine receptor (Homo sapiens) (UniProt P21728); experiment: Antagonist activity at human recombinant dopamine D1 receptor expressed in CHOK1 cells assessed as inhibition of agonist-induced cAMP accumulation at 8 uM preincubated for 10 mins prior to agonist addition measured after 30 mins by HTRF assay relative to SCH23390; assay type: functional, cell-based; conditions: CHO-K1
[11] = target: D(1A) dopamine receptor (Homo sapiens) (UniProt P21728); experiment: Agonist activity at human recombinant dopamine D1 receptor expressed in CHOK1 cells assessed as stimulation of cAMP accumulation at 8 uM after 30 mins by HTRF assay relative to SKF81297; assay type: functional, cell-based; conditions: CHO-K1
[12] = target: D(2) dopamine receptor (Homo sapiens) (UniProt P14416); experiment: Antagonist activity at human recombinant dopamine D2 long receptor expressed in CHOK1 cells coexpressing mitochondrial apoaequorin assessed as inhibition of agonist-induced effect at 8 uM after 15 mins by luminometric analysis relative to haloperidol; assay type: cell-based; conditions: CHO-K1
[13] = target: D(2) dopamine receptor (Homo sapiens) (UniProt P14416); experiment: Agonist activity at human recombinant dopamine D2 long receptor expressed in CHOK1 cells coexpressing mitochondrial apoaequorin at 8 uM by luminometric analysis relative to quinpirol; assay type: cell-based; conditions: CHO-K1
[14] = target: T2, Angiotensin-converting enzyme; experiment: Inhibition of ACE (unknown origin) assessed as 3-Hydroxybutyril-glycil-glycil-glycine conversion to 3-hydroxybutyric acid at 128 uM after 60 mins by WST assay relative to control

T1 sequence (P23219 whole entry): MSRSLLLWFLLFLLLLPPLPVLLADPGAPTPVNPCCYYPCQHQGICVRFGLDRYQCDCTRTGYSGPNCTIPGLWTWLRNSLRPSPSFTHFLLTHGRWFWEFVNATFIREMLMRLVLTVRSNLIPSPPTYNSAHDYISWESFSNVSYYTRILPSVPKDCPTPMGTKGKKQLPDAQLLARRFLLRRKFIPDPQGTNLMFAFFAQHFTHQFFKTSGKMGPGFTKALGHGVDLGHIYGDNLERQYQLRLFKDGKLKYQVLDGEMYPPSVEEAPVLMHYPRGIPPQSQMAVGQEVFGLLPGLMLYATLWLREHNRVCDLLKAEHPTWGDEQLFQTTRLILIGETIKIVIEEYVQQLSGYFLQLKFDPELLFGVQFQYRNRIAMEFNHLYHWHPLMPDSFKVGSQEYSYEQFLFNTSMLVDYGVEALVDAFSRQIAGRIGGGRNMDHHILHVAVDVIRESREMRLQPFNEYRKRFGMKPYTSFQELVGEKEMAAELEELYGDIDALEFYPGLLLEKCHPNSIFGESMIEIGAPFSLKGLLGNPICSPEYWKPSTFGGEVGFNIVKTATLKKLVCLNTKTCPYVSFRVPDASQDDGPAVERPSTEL
D(1A) dopamine receptor (Homo sapiens), sequence (P21728 whole entry): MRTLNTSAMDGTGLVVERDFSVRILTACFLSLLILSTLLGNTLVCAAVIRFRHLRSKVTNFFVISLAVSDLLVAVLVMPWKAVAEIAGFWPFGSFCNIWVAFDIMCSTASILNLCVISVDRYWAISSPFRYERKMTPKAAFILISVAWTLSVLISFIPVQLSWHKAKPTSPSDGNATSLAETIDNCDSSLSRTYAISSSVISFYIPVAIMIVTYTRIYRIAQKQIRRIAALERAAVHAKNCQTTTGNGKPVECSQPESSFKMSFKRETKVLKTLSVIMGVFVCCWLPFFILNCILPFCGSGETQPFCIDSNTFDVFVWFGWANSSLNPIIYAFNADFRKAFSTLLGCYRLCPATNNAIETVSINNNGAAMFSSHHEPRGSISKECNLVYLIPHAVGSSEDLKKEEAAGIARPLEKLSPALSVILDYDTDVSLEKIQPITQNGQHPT
D(2) dopamine receptor (Homo sapiens), sequence (P14416 whole entry): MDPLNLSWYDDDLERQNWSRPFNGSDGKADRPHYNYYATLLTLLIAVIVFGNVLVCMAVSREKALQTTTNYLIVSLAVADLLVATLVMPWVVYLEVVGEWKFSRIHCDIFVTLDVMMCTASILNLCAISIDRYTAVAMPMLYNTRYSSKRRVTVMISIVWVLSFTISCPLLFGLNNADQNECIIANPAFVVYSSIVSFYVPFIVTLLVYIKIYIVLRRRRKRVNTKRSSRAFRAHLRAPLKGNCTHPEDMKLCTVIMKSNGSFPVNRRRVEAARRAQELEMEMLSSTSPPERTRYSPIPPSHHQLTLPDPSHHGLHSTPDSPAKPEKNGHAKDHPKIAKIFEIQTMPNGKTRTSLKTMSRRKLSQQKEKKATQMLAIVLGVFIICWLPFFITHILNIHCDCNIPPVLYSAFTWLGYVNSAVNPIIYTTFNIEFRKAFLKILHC
T2 sequence (P12821 whole entry): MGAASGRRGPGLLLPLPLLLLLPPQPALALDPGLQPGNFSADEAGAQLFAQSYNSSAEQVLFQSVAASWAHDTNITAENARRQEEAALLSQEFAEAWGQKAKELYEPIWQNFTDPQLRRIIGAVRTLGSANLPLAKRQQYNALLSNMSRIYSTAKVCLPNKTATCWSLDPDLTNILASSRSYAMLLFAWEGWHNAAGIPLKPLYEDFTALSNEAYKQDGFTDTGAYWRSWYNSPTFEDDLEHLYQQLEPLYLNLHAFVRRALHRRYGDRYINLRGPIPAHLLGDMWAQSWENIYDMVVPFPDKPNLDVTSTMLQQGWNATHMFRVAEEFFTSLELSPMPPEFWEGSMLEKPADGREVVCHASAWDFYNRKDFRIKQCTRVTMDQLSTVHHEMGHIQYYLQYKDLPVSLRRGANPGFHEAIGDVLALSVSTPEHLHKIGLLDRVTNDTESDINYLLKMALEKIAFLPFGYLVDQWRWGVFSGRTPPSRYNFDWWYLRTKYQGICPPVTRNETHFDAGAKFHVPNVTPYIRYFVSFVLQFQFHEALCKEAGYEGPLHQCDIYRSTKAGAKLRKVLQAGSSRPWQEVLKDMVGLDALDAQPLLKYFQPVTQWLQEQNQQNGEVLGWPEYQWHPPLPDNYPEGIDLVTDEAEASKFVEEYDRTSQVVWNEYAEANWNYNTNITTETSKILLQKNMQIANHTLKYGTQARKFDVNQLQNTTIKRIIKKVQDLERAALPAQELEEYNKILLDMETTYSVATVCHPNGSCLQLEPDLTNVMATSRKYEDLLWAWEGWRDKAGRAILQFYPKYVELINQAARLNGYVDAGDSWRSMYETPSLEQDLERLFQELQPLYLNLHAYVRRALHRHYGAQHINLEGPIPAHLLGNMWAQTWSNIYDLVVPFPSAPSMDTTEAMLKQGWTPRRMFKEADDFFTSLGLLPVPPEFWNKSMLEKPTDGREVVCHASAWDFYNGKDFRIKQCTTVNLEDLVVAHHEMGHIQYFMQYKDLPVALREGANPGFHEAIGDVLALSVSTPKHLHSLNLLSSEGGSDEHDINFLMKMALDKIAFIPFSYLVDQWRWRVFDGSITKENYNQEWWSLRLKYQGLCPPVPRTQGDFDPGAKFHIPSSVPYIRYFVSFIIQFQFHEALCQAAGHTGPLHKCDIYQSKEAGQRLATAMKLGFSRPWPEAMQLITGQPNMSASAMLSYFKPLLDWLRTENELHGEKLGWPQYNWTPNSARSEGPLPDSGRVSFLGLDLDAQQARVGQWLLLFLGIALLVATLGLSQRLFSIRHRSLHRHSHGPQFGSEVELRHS

| SMILES | Activity [1] | inhibition [2] | Activity [3] | inhibition [4] | inhibition [5] | further results |
| --- | --- | --- | --- | --- | --- | --- |
| NC1=NCC2c3ccccc3Cc3ccccc3N12 (stereo not given) | -0.33% | 96% | -1% | 5.5% |  |  |
| NS(=O)(=O)c1cc(C(=O)O)c(NCc2ccco2)cc1Cl |  |  |  |  | 36% |  |
| CCc1cccc2c3c([nH]c12)C(CC)(CC(=O)O)OCC3 (stereo not given) | 0.96% | -1.4% | -1.9% | 13% |  |  |
| C#C[C@]1(O)CC[C@H]2[C@@H]3CCC4=CCCC[C@@H]4[C@H]3C(=C)C[C@@]21CC | 7.1% | 79% | 2.8% | 88% |  |  |
| CN(C)CCC=C1c2ccccc2C=Cc2ccccc21 | 1% | 98% | -4.7% | 95% |  |  |
| CC1(C)NC(=O)N(c2ccc([N+](=O)[O-])c(C(F)(F)F)c2)C1=O |  |  |  |  | 99% |  |
| CC[C@H]1OC(=O)[C@H](C)[C@@H](O[C@H]2C[C@@](C)(OC)[C@@H](O)[C@H](C)O2)[C@H](C)[C@@H](O[C@@H]2O[C@H](C)C[C@H](N(C)C)[C@H]2O)[C@](C)(O)C[C@@H](C)CN(C)[C@H](C)[C@@H](O)[C@]1(C)O |  |  |  |  | 68% |  |
| Nc1ccc(/N=N/c2ccccc2)c(N)n1 |  |  |  |  | 23% |  |
| O=C(O)CCCCC1CCSS1 (stereo not given) |  |  |  |  | 95% |  |
| CC(C)C(=O)Nc1ccc([N+](=O)[O-])c(C(F)(F)F)c1 |  |  |  |  | 100% |  |
| O=C1c2c(O)ccc(O)c2C(=O)c2c(NCCNCCO)ccc(NCCNCCO)c21 | -0.4% | 29% | 66% | 81% |  |  |
| Nc1nc2[nH]cnc2c(=S)[nH]1 | 0.61% | 2.3% | 0.2% | 21% |  |  |
| CC(N)C12CC3CC(CC(C3)C1)C2 (stereo not given) | 3.6% | -0.4% | -0.8% | 41% |  |  |
| CO[C@@H]1[C@@H](OC(N)=O)[C@@H](O)[C@H](Oc2ccc3c(O)c(NC(=O)c4ccc(O)c(CC=C(C)C)c4)c(=O)oc3c2C)OC1(C)C [NOVOBIOCIN] |  |  |  |  |  | Ki [6]: 167 µM; inhibition [6]: Dose-dependent effect; inhibition [7]: 75% |
| CCn1cc(C(=O)O)c(=O)c2ccc(C)nc21 |  |  |  |  | 34% |  |
| C[C@H](CS)C(=O)N1CCC[C@H]1C(=O)O [CAPTOPRIL] |  |  |  |  | 48% | Ki [8]: 12 µM; Ki [9]: 17 µM |
| CN(C)CCCN1c2ccccc2CCc2ccc(Cl)cc21 | 13% | 99% | -4.5% | 92% |  |  |

| SMILES | Activity [1] | inhibition [2] | Activity [3] | inhibition [4] | inhibition [5] | further results |
| --- | --- | --- | --- | --- | --- | --- |
| CN(C)CC/C=C1/c2ccccc2COc2ccc(CC(=O)O)cc21 | -0.14% | 20% | -1.7% | 52% |  |  |
| CC/C=C\C/C=C\C/C=C\CCCCCCCC(=O)O [LINOLENIC ACID] |  |  |  |  | 100% | Ki [9]: 4 µM |
| O=[N+]([O-])c1ccc(O)c2ncccc12 [NITROXOLINE] |  |  |  |  | 97% | Ki [8]: 1 µM |
| Cc1ccc(-c2cc(C(F)(F)F)nn2-c2ccc(S(N)(=O)=O)cc2)cc1 |  |  |  |  |  | inhibition [10]: 95%; Activity [11]: 1.8%; inhibition [12]: 96%; Activity [13]: 175% |
| CC(CN1c2ccccc2Sc2ccccc21)N(C)C (stereo not given) | 3.5% | 84% | -7.4% | 95% |  |  |
| O[C@@H](c1cc(C(F)(F)F)nc2c(C(F)(F)F)cccc12)[C@H]1CCCCN1 (relative stereo) | 45% | 82% | 0.6% | 90% |  |  |
| NC(=O)N/N=C/c1ccc([N+](=O)[O-])o1 |  |  |  |  | 91% |  |
| Cc1nc(Nc2ncc(C(=O)Nc3c(C)cccc3Cl)s2)cc(N2CCN(CCO)CC2)n1 [DASATINIB] |  |  |  |  |  | Ki [6]: 715 µM; inhibition [6]: Dose-dependent effect; inhibition [7]: 46% |
| O=C1CN(/N=C/c2ccc([N+](=O)[O-])o2)C(=O)N1 |  |  |  |  | 66% |  |
| C[C@@H]1O[C@@H]1P(=O)(O)O | 0.09% | -1.3% | -1.2% | 29% |  |  |
| O=C(O)[C@@H]1CCCN1 [PROLINE] |  |  |  |  |  | Ki [6]: 86 µM; inhibition [6]: Dose-dependent effect; inhibition [7]: 93% |
| CCC[C@@]1(CCc2ccccc2)CC(O)=C([C@H](CC)c2cccc(NS(=O)(=O)c3ccc(C(F)(F)F)cn3)c2)C(=O)O1 |  |  |  |  |  | inhibition [14]: 31% |
| COc1cc2nc(N3CCN(C(=O)C4COc5ccccc5O4)CC3)nc(N)c2cc1OC (stereo not given) | 2.4% | 102% | -4.7% |  |  |  |
| O=C(c1ccc(OCCN2CCCCC2)cc1)c1c(-c2ccc(O)cc2)sc2cc(O)ccc12 | 4.7% | 97% | -7.2% | 88% |  |  |
| Cc1c(O)cccc1C(=O)N[C@@H](CSc1ccccc1)[C@H](O)CN1C[C@H]2CCCC[C@H]2C[C@H]1C(=O)NC(C)(C)C |  |  |  |  |  | inhibition [7]: 48% |
| CCCc1nc2c(C)cc(-c3nc4ccccc4n3C)cc2n1Cc1ccc(-c2ccccc2C(=O)O)cc1 |  |  |  |  |  | Ki [6]: 6 µM; inhibition [6]: Dose-dependent effect; inhibition [7]: 97% |
| Oc1ccc(OCc2ccccc2)cc1 |  |  |  |  | 86% |  |

— ChEMBL document CHEMBL3085742, “Experimental confirmation of new drug-target interactions predicted by Drug Profile Matching” (J Med Chem, 2013)
